Source: patent US10941157B2, “Pesticidal compositions and uses thereof” (Gilead Apollo, LLC, priority 2015, dated 2021)
Values after ≈ are worked out from the molar mass of the structure shown. Read-outs that look alike come from different tables or passages of the source.

Key:
Assay type in all cases: cell-based
[1] = tested on: Fusarium moniliforme (Fm); test: In vitro pathogen growth inhibition assay, Fm; settings: Fusarium verticillioides
Method in brief: (§1)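 Spores in 17% V8 liquid medium, or 1.5 mm Rs mycelial plugs in ¼ PDB, incubated with compound; final concentration checked by OD600 for precipitation. OD readings at 24 and 48 h, blank-subtracted, plus visual ratings; value is concentration giving ≥90% growth inhibition.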

Septoria tritici (St) = test: In vitro pathogen growth inhibition assay, St; settings: Zymoseptoria tritici, 48 h
Method in brief: as §1

[2] = tested on: Phytophthora capsici (Pc); test: In vitro pathogen growth inhibition assay, Pc; settings: 48 h
Method in brief: (§2)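 Value reported is the compound concentration reaching ≥90% growth inhibition, from OD readings at 24 and 48 h after blank subtraction, confirmed visually. Inoculum was spores diluted in 17% V8 medium, except Rs, using 1.5 mm mycelial plugs in ¼ PDB; actual compound concentration corrected via OD600.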

Rhizoctonia solani (Rs) = test: In vitro pathogen growth inhibition assay, Rs (mycelial plugs); settings: Rhizoctonia solani, 48 h
Method in brief: as §2

Diplodia maydis (Dm) = test: In vitro pathogen growth inhibition assay, Dm; settings: Stenocarpella maydis, 48 h
Method in brief: as §2

[3] = tested on: Collectotrichum graminicola (Cg); test: In vitro pathogen growth inhibition assay, Cg; settings: 48 h
Method in brief: as §1

Botrtyis cinerea (Bc) = test: In vitro pathogen growth inhibition assay, Bc; settings: 48 h
Method in brief: as §1

[4] = tested on: Fusarium virguliforme (Fv); test: In vitro pathogen growth inhibition assay, Fv
Method in brief: as §2

[5] = ≥90% inhibition, 48 hours vs 2% DMSO control, read-out: Compound Concentration (ppm) sufficient for ≥90% inhibition of growth, Fm
[6] = ≥90% inhibition, 48 hours vs 2% DMSO control, read-out: Compound Concentration (ppm) sufficient for ≥90% inhibition of growth, St
[7] = ≥90% inhibition, 48 hours vs 2% DMSO control, read-out: Compound Concentration (ppm) sufficient for ≥90% inhibition of growth, Pc
[8] = ≥90% inhibition, mycelial plugs, 48 hours vs 2% DMSO control, read-out: Compound Concentration (ppm) sufficient for ≥90% inhibition of growth, Rs
[9] = ≥90% inhibition, 48 hours vs 2% DMSO control, read-out: Compound Concentration (ppm) sufficient for ≥90% inhibition of growth, Dm
[10] = ≥90% inhibition, 48 hours vs 2% DMSO control, read-out: Compound Concentration (ppm) sufficient for ≥90% inhibition of growth, Cg
[11] = ≥90% inhibition, 48 hours vs 2% DMSO control, read-out: Compound Concentration (ppm) sufficient for ≥90% inhibition of growth, Bc
[12] = ≥90% inhibition, 48 hours vs 2% DMSO control, read-out: Compound Concentration (ppm) sufficient for ≥90% inhibition of growth, Fv
[13] = ≥90% growth inhibition, 48 hours, vs 2% DMSO control, read-out: Compound Concentration (ppm) sufficient for ≥90% inhibition of Fm
[14] = ≥90% growth inhibition, 48 hours, vs 2% DMSO control, read-out: Compound Concentration (ppm) sufficient for ≥90% inhibition of St
[15] = ≥90% growth inhibition, 48 hours, vs 2% DMSO control, read-out: Compound Concentration (ppm) sufficient for ≥90% inhibition of Pc
[16] = ≥90% growth inhibition, mycelial plugs, 48 hours, vs 2% DMSO control, read-out: Compound Concentration (ppm) sufficient for ≥90% inhibition of Rs
[17] = ≥90% growth inhibition, 48 hours, vs 2% DMSO control, read-out: Compound Concentration (ppm) sufficient for ≥90% inhibition of Dm
[18] = ≥90% growth inhibition, 48 hours, vs 2% DMSO control, read-out: Compound Concentration (ppm) sufficient for ≥90% inhibition of Cg
[19] = ≥90% growth inhibition, 48 hours, vs 2% DMSO control, read-out: Compound Concentration (ppm) sufficient for ≥90% inhibition of Bc
[20] = ≥90% growth inhibition, 48 hours, vs 2% DMSO control, read-out: Compound Concentration (ppm) sufficient for ≥90% inhibition of Fv

`C=CCNC(=O)C(C)(C)n1c(=O)c2c(C)c(-n3nccn3)sc2n(C[C@H](OC2CCOCC2)c2cc(F)ccc2OC)c1=O` [Compound I-079] was tested, and the IC90 [1, 5] was 0.08 µg/mL (≈ 0.128 µM), the IC90 (Septoria tritici (St); [6]) was > 50 µg/mL and the IC90 [2, 7] was > 50 µg/mL. For the same molecule, the IC90 (Rhizoctonia solani (Rs); [8]) was 0.4 µg/mL (≈ 0.638 µM), the IC90 (Diplodia maydis (Dm); [9]) was 2 µg/mL (≈ 3.19 µM) and the IC90 [3, 10] was 2 µg/mL (≈ 3.19 µM). It also gave an IC90 (Botrtyis cinerea (Bc); [11]) of 2 µg/mL (≈ 3.19 µM) and an IC90 [4, 12] of 0.4 µg/mL (≈ 0.638 µM).

With `C=CCN(C)C(=O)C(C)(C)n1c(=O)c2c(C)c(-n3nccn3)sc2n(C[C@H](OC2CCOCC2)c2cc(F)ccc2OC)c1=O` [Compound I-080] the IC90 [1, 5] was 0.08 µg/mL (≈ 0.125 µM), the IC90 (Septoria tritici (St); [6]) was > 50 µg/mL and the IC90 [2, 7] was > 50 µg/mL. For the same molecule, the IC90 (Rhizoctonia solani (Rs); [8]) was 0.08 µg/mL (≈ 0.125 µM), the IC90 (Diplodia maydis (Dm); [9]) was 0.4 µg/mL (≈ 0.624 µM) and the IC90 [3, 10] was 0.08 µg/mL (≈ 0.125 µM). It also gave an IC90 (Botrtyis cinerea (Bc); [11]) of 0.4 µg/mL (≈ 0.624 µM) and an IC90 [4, 12] of 2 µg/mL (≈ 3.12 µM).

For `COCCO[C@@H](Cn1c(=O)n([C@@H](C)C(=O)NC(C)C)c(=O)c2c(C)c(-n3cccn3)sc21)c1cc(F)ccc1OC` [Compound I-311], the IC90 ([1]; concentration sufficient to ≥90% inhibition of growth, 48 hours vs 2% DMSO control, read-out: Compound Concentration (ppm) for ≥90% inhibition, Fm) was 50 µg/mL (≈ 85.1 µM), the IC90 (Septoria tritici (St); concentration sufficient to ≥90% inhibition of growth, 48 hours vs 2% DMSO control, read-out: Compound Concentration (ppm) for ≥90% inhibition, St) was > 50 µg/mL and the IC90 ([2]; concentration sufficient to ≥90% inhibition of growth, 48 hours vs 2% DMSO control, read-out: Compound Concentration (ppm) for ≥90% inhibition, Pc) was > 50 µg/mL. The IC90 (Rhizoctonia solani (Rs); concentration sufficient to ≥90% inhibition of growth, 48 hours vs 2% DMSO control, read-out: Compound Concentration (ppm) for ≥90% inhibition, Rs) was > 50 µg/mL, the IC90 (Diplodia maydis (Dm); concentration sufficient to ≥90% inhibition of growth, 48 hours vs 2% DMSO control, read-out: Compound Concentration (ppm) for ≥90% inhibition, Dm) was > 50 µg/mL and the IC90 ([3]; concentration sufficient to ≥90% inhibition of growth, 48 hours vs 2% DMSO control, read-out: Compound Concentration (ppm) for ≥90% inhibition, Cg) was > 50 µg/mL. The IC90 (Botrtyis cinerea (Bc); concentration sufficient to ≥90% inhibition of growth, 48 hours vs 2% DMSO control, read-out: Compound Concentration (ppm) for ≥90% inhibition, Bc) was 50 µg/mL (≈ 85.1 µM) and the IC90 ([4]; concentration sufficient to ≥90% inhibition of growth, 48 hours vs 2% DMSO control, read-out: Compound Concentration (ppm) for ≥90% inhibition, Fv) was > 50 µg/mL.

For `CCOC(=O)c1sc2c(c1C)c(=O)n([C@@H](C)C(=O)N1CCCC1)c(=O)n2C[C@H](OCCC#N)c1cc(F)ccc1OC` [Compound I-225], the IC90 [1, 13] was 2 µg/mL (≈ 3.33 µM), the IC90 (Septoria tritici (St); [14]) was > 50 µg/mL and the IC90 [2, 15] was > 50 µg/mL. For the same molecule, the IC90 (Rhizoctonia solani (Rs); [16]) was 10 µg/mL (≈ 16.6 µM), the IC90 (Diplodia maydis (Dm); [17]) was > 10 µg/mL and the IC90 [3, 18] was > 50 µg/mL. For the same molecule, the IC90 (Botrtyis cinerea (Bc); [19]) was 10 µg/mL (≈ 16.6 µM) and the IC90 [4, 20] was ≥ 50 µg/mL.

In the case of `COc1ccc(F)cc1[C@H](Cn1c(=O)n(C(C)(C)C(N)=O)c(=O)c2c(C)c(-n3nccn3)sc21)OC1CCC(=O)CC1` [Compound I-124], the IC90 [1, 5] is reported as 0.4 µg/mL (≈ 0.668 µM), the IC90 (Septoria tritici (St); [6]) is reported as > 50 µg/mL and the IC90 [2, 7] is reported as 50 µg/mL (≈ 83.5 µM). For the same molecule, the IC90 (Rhizoctonia solani (Rs); [8]) was 2 µg/mL (≈ 3.34 µM), the IC90 (Diplodia maydis (Dm); [9]) was ≥ 2 µg/mL and the IC90 [3, 10] was 10 µg/mL (≈ 16.7 µM). For the same molecule, the IC90 (Botrtyis cinerea (Bc); [11]) was ≥ 0.4 µg/mL and the IC90 [4, 12] was 10 µg/mL (≈ 16.7 µM).

For `COc1ccccc1[C@H](Cn1c(=O)n(C(C)(C)C(=O)NC(C)C)c(=O)c2c(C)c(-n3nccn3)sc21)OCCC(=O)NO` [Compound I-266], the IC90 [1, 13] was 2 µg/mL (≈ 3.26 µM), the IC90 (Septoria tritici (St); [14]) was > 50 µg/mL and the IC90 [2, 15] was ≥ 50 µg/mL. For the same molecule, the IC90 (Rhizoctonia solani (Rs); [16]) was 2 µg/mL (≈ 3.26 µM), the IC90 (Diplodia maydis (Dm); [17]) was 10 µg/mL (≈ 16.3 µM) and the IC90 [3, 18] was 10 µg/mL (≈ 16.3 µM). The IC90 (Botrtyis cinerea (Bc); [19]) was 2 µg/mL (≈ 3.26 µM) and the IC90 [4, 20] was 2 µg/mL (≈ 3.26 µM).

`COc1ccc(F)cc1[C@H](Cn1c(=O)n(C(C)(C)C(=O)N2CC=CC2)c(=O)c2c(C)c(-n3nccn3)sc21)OC[C@@H](C)O` [Compound I-081] was tested, and the IC90 [1, 5] was 0.08 µg/mL (≈ 0.131 µM), the IC90 (Septoria tritici (St); [6]) was > 50 µg/mL and the IC90 [2, 7] was ≥ 50 µg/mL. For the same molecule, the IC90 (Rhizoctonia solani (Rs); [8]) was 0.4 µg/mL (≈ 0.653 µM), the IC90 (Diplodia maydis (Dm); [9]) was 2 µg/mL (≈ 3.26 µM) and the IC90 [3, 10] was 0.4 µg/mL (≈ 0.653 µM). For the same molecule, the IC90 (Botrtyis cinerea (Bc); [11]) was 2 µg/mL (≈ 3.26 µM) and the IC90 [4, 12] was 0.4 µg/mL (≈ 0.653 µM).

For `CCNC(=O)[C@@H](C)n1c(=O)c2c(C)c(C(=O)OCC)sc2n(C[C@H](OCCC#N)c2cc(F)ccc2OC)c1=O` [Compound I-297], the IC90 [1, 13] was 2 µg/mL (≈ 3.48 µM), the IC90 (Septoria tritici (St); [14]) was > 50 µg/mL and the IC90 [2, 15] was > 50 µg/mL. For the same molecule, the IC90 (Rhizoctonia solani (Rs); [16]) was > 50 µg/mL, the IC90 (Diplodia maydis (Dm); [17]) was > 50 µg/mL and the IC90 [3, 18] was 10 µg/mL (≈ 17.4 µM). For the same molecule, the IC90 (Botrtyis cinerea (Bc); [19]) was 10 µg/mL (≈ 17.4 µM) and the IC90 [4, 20] was > 50 µg/mL.

For `COc1ccc(F)cc1[C@H](Cn1c(=O)n([C@@H](C)C(=O)N2CCCC2)c(=O)c2c(C)c(-n3nccn3)sc21)OCCC#N` [Compound I-201], the IC90 [1, 13] was 0.4 µg/mL (≈ 0.672 µM), the IC90 (Septoria tritici (St); [14]) was > 50 µg/mL and the IC90 [2, 15] was > 50 µg/mL. For the same molecule, the IC90 (Rhizoctonia solani (Rs); [16]) was 0.08 µg/mL (≈ 0.134 µM), the IC90 (Diplodia maydis (Dm); [17]) was ≥ 2 µg/mL and the IC90 [3, 18] was 10 µg/mL (≈ 16.8 µM). For the same molecule, the IC90 (Botrtyis cinerea (Bc); [19]) was 2 µg/mL (≈ 3.36 µM) and the IC90 [4, 20] was ≥ 0.4 µg/mL.

In the case of `COc1ccc(F)cc1[C@H](Cn1c(=O)n(C(C)(C)C(=O)N2CCOCC2)c(=O)c2c(C)c(-n3nccn3)sc21)OC(C)C` [Compound I-021], the IC90 [1, 5] is reported as 0.08 µg/mL (≈ 0.13 µM), the IC90 (Septoria tritici (St); [6]) is reported as > 10 µg/mL and the IC90 [2, 7] is reported as > 50 µg/mL. It also gave an IC90 (Rhizoctonia solani (Rs); [8]) of 0.4 µg/mL (≈ 0.651 µM), an IC90 (Diplodia maydis (Dm); [9]) of 2 µg/mL (≈ 3.25 µM) and an IC90 [3, 10] of 2 µg/mL (≈ 3.25 µM). The IC90 (Botrtyis cinerea (Bc); [11]) was 0.4 µg/mL (≈ 0.651 µM) and the IC90 [4, 12] was 0.4 µg/mL (≈ 0.651 µM).
